The record followed here is patent US20230265296A1, “COATING COMPOSITION INCLUDING ALKYL OXIMES” (AdvanSix Resins & Chemicals LLC, priority 2015, published 2023).

One data set is described as follows: Vapor pressure. Particulars: at 20° C. The class given is physicochemical.
Data set [1] is described as follows: Saturated vapor concentration. Format: physicochemical.
Another data set has as its system fish. Nature of the data set: Fish mortality (LC50). The class given is in vivo.
In the next data set the test system is algae. Kind of data set: Algae growth inhibition (EC50). The class given is cell-based.
Data set [2] is described as follows: Sensitization classification.
Data set [3] can be described thus: Eye irritation categorisation. Particulars: hazard code.

The structures appear in SMILES notation.

`CC(CC(C)C)=NO` [MIBKO, methyl isobutyl ketoxime]: the vapor pressure entry in the data set “Vapor pressure” is reported as “about 0.13 hPa”.

In turn, `CCC/C(C)=N\O` [2-PO, 2-pentanone oxime] showed a saturated vapor concentration in data set [1] of 300 ppm. For the same molecule, in data set [1] (2-PO versus MEKO), the “saturated vapor concentration relative to that of MEKO” value was “less than 25%”. Besides, in the data set with fish, the “lethal concentration of 50% mortality (LC50) for fish” value is listed as “greater than 100 ppm”. Further, in the data set on algae, the “effective concentration of 50% growth inhabitation (EC50) for algae” value came out at 88 ppm. In addition, in the data set “Dermal irritation”, the dermal irritation entry is listed as “no irritation”. Moreover, the vapor pressure result in “Vapor pressure” is recorded as “about 1.60 mm Hg”; in “Vapor pressure” (listed as 2-pentanone oxime), “about 2.14 hPa”. The sensitizer classification entry in data set [2] was “not a sensistizer”. Moreover, the eye irritation category entry in data set [3] was “serious eye irritation (code H319)”.

`C/C(=N/O)C(C)C` [3-methyl-2-butanone oxime]: in the data set “Vapor pressure”, the vapor pressure entry is on record as “less than 0.975 mm Hg”.

In data set [1], `CCC(C)=NO` [MEKO, methyl ethyl ketoxime, reference compound] showed a saturated vapor concentration of 1350 ppm. Also, the “lethal concentration of 50% mortality (LC50) for fish” value with fish is given as 48 ppm. In the data set on algae, the “effective concentration of 50% growth inhabitation (EC50) for algae” value was determined as 7 ppm. In “Vapor pressure”, this molecule came in with a vapor pressure of 2.00 mm Hg.
